A word on the IC50: it is the concentration needed to halve the response being measured. A high value points to lower potency. Usually AUC(0-t) stands for exposure summed from dosing to a finite time, without extrapolation to infinity. High values mean high exposure, low ones low exposure. As a reminder, the Cmax is the peak of the concentration-time curve. Usually half-life stands for the time in which the quantity being followed falls by half. Low readings indicate fast loss, high ones slow loss.

Read-outs that look alike come from different tables or passages of the source. Bounds are passed on as bounds.

The nature of series [1]: Pharmacokinetic study in mice, plasma and brain availability. The conditions noted are these: single oral dose 10 mg/kg PO.
Description: (§1) Mice are given a single oral dose of the compound to be tested (10 mg/kg, PO) and plasma and brain availability are measured (0.25-4h) using HPLC and LC-MS using methods analogous to those described in Zhao et al., J. Chromatogr.
Series [2] concerns mice. As to the kind of experiment: Elevated plus maze, acute anxiolytic activity. The conditions noted are these: compound 1, 2, and 5 mg/kg, i.p., diazepam 0.5 mg/kg.
The test system of series [3] is mice. Description: Tail suspension paradigm, acute antidepressant-like activity. The class given is in vivo.
In series [4] the test system is mice. As to the kind of experiment: Forced swim paradigm, acute antidepressant-like activity. The class given is in vivo.
The subject of series [5] is CREB (cAMP response element-binding protein). As to the kind of experiment: Phosphorylation of effector proteins under cGMP/cAMP control: CREB. The class given is cell-based.
For series [6], the system named is T1, PDE4.
T1 construct: PDE4 IC50
As to the kind of experiment: PDE isoform inhibition, IMAP procedure. The class given is biochemical.

Series [7] concerns VASP (vasodilator stimulated phosphoprotein). Description: Phosphorylation of effector proteins under cGMP/cAMP control: VASP. The class given is cell-based.
The subject of series [8] is PDE1. As to the kind of experiment: PDE isoform inhibition, IMAP procedure. The class given is biochemical.
For series [9], the system named is HT-22 (hippocampal-like) cells. Description: cGMP levels in HT-22 cells stimulated by NMDA. In kind it is cell-based.
Series [10] relates to mice. As to conditions: mouse, in vivo.
Series [11] deals with cGMP and cAMP levels in hippocampus. As to the kind of experiment: In vivo levels of cGMP and cAMP in mouse brain (hippocampus). As to conditions: mice killed 30 min after injection. The method, then: For these studies, mice were killed 30 min after injection of each drug/dose and hippocampus isolated and used for measurement of cyclic nucleotides.
Series [12] can be described thus: in vivo. The conditions noted are these: mouse, po, 10 mg/kg.
Description: as §1
Series [13] deals with BDNF. As to the kind of experiment: Expression of the growth factor BDNF. In kind it is cell-based.
The test system of series [14] is HT22 cells. As to the kind of experiment: cAMP levels in HT22 cells stimulated by isoproterenol. In kind it is cell-based. A general note: cAMP levels reflect the balance of adenylyl cyclase and phosphodiesterase activity.
The test system of series [15] is PDE6. As to the kind of experiment: PDE isoform inhibition, IMAP procedure. In kind it is biochemical.
In series [16] the test system is PDE3. As to the kind of experiment: PDE isoform inhibition, IMAP procedure. The class given is biochemical.
The target of series [17] is PDE5 (Homo sapiens, UniProt O76074). As to the kind of experiment: PDE isoform inhibition, IMAP procedure. The class given is biochemical.
Series [18] concerns mice. Description: Hole board test, acute anxiolytic activity. As to conditions: compound 1, 2, and 5 mg/kg, i.p., diazepam 0.5 mg/kg.
Series [19] has as its system mice. Description: Spontaneous locomotor activity. As to conditions: same dose levels that increased anxiolytic activity.

Regarding `COc1ccc(Cc2nn3c([C@@H](CCCc4ccccc4)[C@@H](C)O)nc(C)c3c(=O)[nH]2)cc1OC` [BAY-7550], in series [1], the Tmax worked out at 0.25. Also, the “Open arm entrances, elevated plus maze” value in [2] is “small trends for these assays that did not achieve statistical significance”; in series [2] (listed as commercial PDE2 inhibitor) it was “no statically significant effect”. In addition, in series [3], the “Immobility time / antidepressant-like activity, tail suspension” value is “generally smaller effects that did not reach significance in all assays”. For the same molecule, the “Immobility time / antidepressant-like activity, forced swim” value in series [4] is given as “generally smaller effects that did not reach significance in all assays”.
Turning to `Cc1ccc(-c2c(-c3nc(C)n4ccnc(N5CCC5)c34)cnn2C)cc1` [Compound 1, 8-(azetidin-1-yl)-3-methyl-1-(1-methyl-5-(p-tolyl)-1H-pyrazol-4-yl)imidazo[1,5-a]pyrazine], the “Phosphorylation of CREB” value in series [5] is listed as “concentration-dependent increase”. The IC50 is 24.8 µM in [6]; 8.3 µM in series [8]; more than 100 µM in [15]; more than 100 µM in [16]; 15.1 µM in [17]. In series [7], the “Phosphorylation of VASP” value is listed as “concentration-dependent increase”. In series [9], the “Optimal dose for stimulation of cGMP levels” value is given as 10 nM. In series [9] (NMDA (20 μM), 15 min incubation), the cGMP levels result is on record as “dose-dependent increase”. Moreover, the Spontaneous locomotor activity result in series [10] is “did not significantly affect spontaneous locomotor activity”. In addition, in series [11], the “cAMP levels in hippocampus” value was “significant increases”. The “cGMP levels in hippocampus” value in series [11] was “significant increases”. This molecule also displayed an exposure AUC(0-t) in [12] of 119 ng·h/mL. The molecule further had a Cmax in [12] of 268 ng/mL. In series [12], the Tmax came to 30 min. For the same molecule, the half-life in [12] was 48 min. In addition, the “Expression of BDNF” value in series [13] was “increased the expression”. Further, in series [14], the “Optimal dose for stimulation of cAMP levels” value came out at 10 nM. Besides, the cAMP levels result in series [14] (isoproterenol (ISO, 10 nM)) is reported as “dose-dependent increase”. In [2], the “Open arm entrances, elevated plus maze” value is given as “significantly increased open arm entrances”. Further, in series [3], the “Immobility time / antidepressant-like activity, tail suspension” value is reported as “significantly reduced immobility time”. Further, in series [4], the “Immobility time / antidepressant-like activity, forced swim” value is given as “significantly reduced immobility time”.
Turning to `CNCCCN1c2ccccc2CCc2ccccc21` [Desipramine, desipramine], in series [3], the “Immobility time / antidepressant-like activity, tail suspension” value is given as “induced signs of antidepressant-like activity”. Besides, the “Immobility time / antidepressant-like activity, forced swim” value in series [4] is reported as “induced signs of antidepressant-like activity”.
On to `CN1C(=O)CN=C(c2ccccc2)c2cc(Cl)ccc21` [Diazepam, diazepam], for which the “Exploration, hole board test” value in [18] is “increased explorations”. Moreover, the “Open arm entrances, elevated plus maze” value in series [2] is on record as “increased entrance into open arms”. In [19], the Spontaneous locomotor activity entry is given as “did not significantly affect spontaneous locomotor activity”.

The record behind these values is patent publication US12180210B2, “Compounds” (INTRA-CELLULAR THERAPIES, INC., priority 2018, dated 2024).
